Results published in patent EP1076558B1, “2-PHENYL-1-[-(2-AMINOETHOXY)-BENZYL -INDOLE IN COMBINATION WITH ESTROGENS” (Wyeth, priority 1998, dated 1999).
Where a name gives a salt, the structure may show the parent alone. Read-outs that look alike come from different tables or passages of the source.

Columns and labels:
estrogen receptor = molecular target: T1, estrogen receptor (Homo sapiens, UniProt P03372); experiment: In vitro estrogen receptor binding assay
T1 construct: expressed in transfected cells; host or cells: CHO cells (ribosome-free cytosol)
T1 sequence (P03372 1-595): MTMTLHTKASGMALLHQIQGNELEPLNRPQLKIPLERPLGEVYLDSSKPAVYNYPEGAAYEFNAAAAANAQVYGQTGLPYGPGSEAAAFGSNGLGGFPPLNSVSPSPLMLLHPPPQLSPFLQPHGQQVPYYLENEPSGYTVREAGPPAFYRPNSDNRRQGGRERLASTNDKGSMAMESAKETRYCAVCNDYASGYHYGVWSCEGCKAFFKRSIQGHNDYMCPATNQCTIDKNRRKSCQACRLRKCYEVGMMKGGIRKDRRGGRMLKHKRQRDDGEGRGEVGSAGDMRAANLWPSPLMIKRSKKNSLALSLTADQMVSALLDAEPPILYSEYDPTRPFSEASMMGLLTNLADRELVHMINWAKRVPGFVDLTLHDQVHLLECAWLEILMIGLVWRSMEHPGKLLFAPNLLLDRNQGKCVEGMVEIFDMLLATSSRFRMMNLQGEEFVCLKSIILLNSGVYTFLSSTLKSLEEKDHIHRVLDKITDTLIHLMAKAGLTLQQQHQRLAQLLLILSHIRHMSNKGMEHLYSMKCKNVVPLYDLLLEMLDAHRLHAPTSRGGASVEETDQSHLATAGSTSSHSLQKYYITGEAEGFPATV
Description: CHO cells overexpressing the estrogen receptor were grown in 150 mm^2 dishes in DMEM + 10% dextran coated charcoal, stripped fetal bovine serum. The plates were washed twice with PBS and once with 10mM Tris-HCl, pH 7.4, 1mM EDTA. Cells were harvested by scraping the surface and then the cell suspension was placed on ice. Cells were disrupted with a hand-held motorized tissue grinder using two, 10-second bursts. […] The cytosol was then frozen and stored at -80°C. Protein concentration of the cytosol was estimated using the BCA assay with reference standard protein.
100uG/100uL of the receptor preparation was aliquoted per well. […] The plate was incubated at room temperature for 2.5 h. […] 200 uL of the supernatant solution was then removed for scintillation counting. Samples were counted to 2% or 10 minutes, whichever occurs first. […] Also, wells containing radioactivity but no cytosol were processed with charcoal to estimate unremovable DPM of [^3H]
Counts per minute (CPM) of radioactivity were automatically converted to disintegrated per minute (DPM) by the Beckman LS 7500 Scintillation Counter using a set of quenched standards to generate a H No. for each sample.
For the generation of IC50 curves, % binding is plotted vs compound. […] For a description of these methods, see Hulme, E.C., ed. […] Receptor-Ligand Interactions: A Practical Approach. IRL Press, New York.(see especially chapter 8).

Ishikawa cells = experiment: Ishikawa Cell Alkaline Phosphatase Assay; assay type: cell-based, human; settings: estrogenic activity by the alkaline phosphatase method, reference standards, read-out: ED50 values (95% C.I.)
Description: Cells were treated for 48 h prior to assay. […] Sample population for at each dose was n=8. […] Plates are placed at -80°C for a minimum of 15 minutes. Plates are thawed at 37°C followed by the addition of 150μL of 0.1 M Tris-HCl, pH 9.8, containing 4 mM para-nitrophenylphosphate (pNPP) to each well (final concentration. 3 mM pNPP). Absorbance and slope calculations were made using the […] Application program (Bio-Tek Instruments, Inc., Winooski, VT). […] Various compounds were assayed for estrogenic activity by the alkaline phosphatase method and corresponding ED50 values (95% C.I.) were calculated. The four listed in the following were used as as reference standards: A description of these methods is described by Holinka, […]., Kuramoto, H. and Gurpide, E. (1986) Effects of steroid hormones and antisteroids on alkaline phosphatase activity in human endometrial cancer cells (Ishikawa Line). Cancer Research, 46:2771-2774, and by […]. and […] simple and sensitive microtiter plate estrogen bioassay based on stimulation alkaline phosphatase in Ishikawa cells; […] Endocrinology, 6:2757-2762.

[1] = read-out: Receptor Binding IC50's
[2] = competition with [3H]17β-estradiol, cytosol of CHO cells overexpressing the estrogen receptor, read-out: Receptor Binding IC50's

Structure (SMILES): CCOc1ccc(-c2c(C)c3cc(O)ccc3n2Cc2ccc(OCCN3CCCCC3)cc2)cc1 [Example No. 92, 2-(4-Ethoxv-phenyl)-3-methyl-1-[4-(2-piperidin-1-yl-ethoxy)-benzyl]-1H-indol-5-ol]
- IC50 (estrogen receptor; [1]): 62 nM

Structure (SMILES): Cc1c(-c2ccc(O)cc2)n(Cc2ccc(OCCN3CCCCC3)cc2)c2ccccc12 [Example No. 86, 4-{3-Methyl-1-[4-(2-piperidin-1-yl-ethoxy)-benzyl]-1H-indol-2-yl}-phenol hydrochloride]
- IC50 (estrogen receptor; [1]): 120 nM

Structure (SMILES): Cc1c(-c2ccc(O)cc2)n(Cc2ccc(OCCN3CCCCC3C)cc2)c2ccc(O)cc12 (centres unmarked) [Example No. 108, 2-(4-Hydroxy-phenyl)-3-methyl-1-{4-[2-(2-methyl-piperidin-1-yl)-ethoxy]-benzyl}-1H-indol-5-ol]
- IC50 (estrogen receptor; [1]): 20 nM

Structure (SMILES): Cc1c(-c2ccc(O)cc2)n(Cc2ccc(OCCN3CCC(C)CC3)cc2)c2ccc(O)cc12 [Example No. 110, 2-(4-Hydroxy-phenyl)-3-methyl-1-{4-[2-(4-methyl-piperidin-1-yl)-ethoxy]-benzyl}-1H-indol-5-ol]
- IC50 (estrogen receptor; [1]): 37 nM

Structure (SMILES): Cc1c(-c2ccc(O)cc2)n(Cc2ccc(OCCN3CCC(O)CC3)cc2)c2ccc(O)cc12 [Example No. 113, 2-(4-Hydroxy-phenyl)-1-{4-[2-(4-hydroxy-piperidin-1-yl)-ethoxy]-benzyl}-3-methyl-1H-indol-5-ol]
- IC50 (estrogen receptor; [1]): 47 nM

Structure (SMILES): Cc1c(-c2ccc(O)cc2)n(Cc2ccc(OCCN(C(C)C)C(C)C)cc2)c2ccc(O)cc12 [Example No. 104, 1-[4-(2-Diisopropylamino-ethoxy)-benzyl]-2-(4-hydroxy-phenyl)-3-methyl-1H-indol-5-ol]
- IC50 (estrogen receptor): 100 nM

Structure (SMILES): COc1ccc2c(c1)c(C)c(-c1ccc(O)cc1)n2Cc1ccc(OCCN2CCCCC2)cc1 [Example No. 88, 4-{5-Methoxy-3-methyl-1-{4-[2-(piperidin-1-yl)-ethoxy]-benzyl}-1H-indol-2-yl}-phenol]
- IC50 (estrogen receptor; [1]): 350 nM

Structure (SMILES): C[C@]12CC[C@@H]3c4ccc(O)cc4CC[C@H]3[C@@H]1CCC2=O [estrone]
- EC50 (Ishikawa cells; Homo sapiens, Ishikawa): 0.36 nM

Structure (SMILES): Cc1c(-c2ccc(F)cc2)n(Cc2ccc(OCCN3CCCCC3)cc2)c2ccc(O)cc12 [Example No. 116, 2-(4-Fluoro-phenyl)-3-methyl-1-[4-(2-piperidine-1-yl-ethoxy)-benzyl]-1H-indol-5-ol]
- IC50 (estrogen receptor; [1]): 40 nM

Structure (SMILES): CCCCN(C)CCOc1ccc(Cn2c(-c3ccc(O)cc3)c(C)c3cc(O)ccc32)cc1 [Example No. 105]
- IC50 (estrogen receptor; [2]): 28 nM

Structure (SMILES): C[C@]12CC[C@@H]3c4ccc(O)cc4CC[C@H]3[C@@H]1CC[C@H]2O [17α-estradiol]
- EC50 (Ishikawa cells): 1.42 nM

Structure (SMILES): Cc1c(-c2ccc(O)cc2)n(Cc2ccc(OCCN3CCCCC3)cc2)c2ccc(F)cc12 [Example No. 94, 4-{5-Fluoro-3-methvl-1-[4-(2-piperidin-1-yl-ethoxy)-benzyl]-1H-indol-2-yl}-phenol]
- IC50 (estrogen receptor; [1]): 200 nM

Structure (SMILES): Cc1c(-c2ccc(F)cc2)n(Cc2ccc(OCCN3CCCCCC3)cc2)c2ccc(O)cc12 [Example No. 117, 1-[4-(2-Azepan-1-yl-ethoxy)-benzyl]-2-(4-fluoro-phenyl)-3-methyl-1H-indol-5-ol]
- IC50 (estrogen receptor; [1]): 100 nM

Structure (SMILES): Cc1c(-c2ccc(O)cc2)n(Cc2ccc(OCCN3CCCC(C)(C)C3)cc2)c2ccc(O)cc12 [Example No. 111, 1-{4-[2-(3,3-Dimethyl-piperidin-1-yl)-ethoxy]-benzyl}-2-(4-hydroxy-phenyl)-3-methyl-1H-indol-5-ol]
- IC50 (estrogen receptor; [1]): 150 nM

Structure (SMILES): CCCCN(CCCC)CCOc1ccc(Cn2c(-c3ccc(O)cc3)c(C)c3cc(O)ccc32)cc1 [Example No. 103, 1-[4-(2-Dibutylamino-ethoxy)-benzyl]-2-(4-hydroxy-phenyl)-3-methyl-1H-indol-5-ol]
- IC50 (estrogen receptor; [1]): 200 nM

Structure (SMILES): CCOc1ccc(-c2c(C)c3cc(O)ccc3n2Cc2ccc(OCCN3CCCCCC3)cc2)cc1 [Example No. 93, 1-[4-(2-Azepan-1-yl-ethoxy)-benzyl]-2-(4-ethoxy-phenyl)-3-methyl-1H-indol-5-ol]
- IC50 (estrogen receptor; [1]): 90 nM

Structure (SMILES): Cc1c(-c2ccc(O)cc2)n(Cc2ccc(OCC[N+](C)(C)C)cc2)c2ccc(O)cc12 [Example No. 106, 2-(4-Hydroxy-phenyl)-3-methyl-1-[4-(2-dimethyl-1-yl-ethoxy)-benzyl]-1H-indol-5-ol methiodide]
- IC50 (estrogen receptor; [2]): 100 nM

Structure (SMILES): Cc1c(-c2ccccc2)n(Cc2ccc(OCCN3CCCCC3)cc2)c2ccc(O)cc12 [Example No. 87, 3-Methyl-2-phenyl-1-[4-(2-piperidine-1-yl-ethoxy)-benzyl]-1H-indol-5-ol]
- IC50 (estrogen receptor; [1]): 30 nM

Structure (SMILES): COc1ccc(-c2c(C)c3cc(OC)ccc3n2Cc2ccc(OCCN3CCCCC3)cc2)cc1 [Example No. 90, 5-Methoxy-2-(4-methoxy-phenyl)-3-methyl-1-{4-(2-piperidin-1-yl-ethoxy)-benzyl]-1H-indole]
- IC50 (estrogen receptor; [1]): 600 nM

Structure (SMILES): COc1ccc(-c2c(C)c3cc(O)ccc3n2Cc2ccc(OCCN3CCCCC3)cc2)cc1 [Example No. 89, 2-(4-methoxy-phenyl)-3-methyl-1-{4-[2-(piperidin-1-yl)-ethoxy]-benzyl}-1H-indol-5-ol]
- IC50 (estrogen receptor; [1]): 300 nM

Structure (SMILES): Cc1c(-c2ccc(O)cc2)n(Cc2ccc(OCCN3CC4(C)CC3CC(C)(C)C4)cc2)c2ccc(O)cc12 (centres unmarked) [Example No. 115, 2-(4-Hydroxy-phenyl)-3-methyl-1-{4-[2-(1,3,3-trimethyl-6-aza-bicyclo[3.2.1]oct-6-yl)-ethoxy]-benzyl}-1H-indol-5-ol]
- IC50 (estrogen receptor; [1]): 150 nM

Structure (SMILES): Cc1c(-c2ccccc2)n(Cc2ccc(OCCN3CCCCC3)cc2)c2ccccc12 [Example No. 85, 4-{3-Methyl-1-[4-(2-piperidin-1-yl-ethoxy)-benzyl]-1H-indole}]
- IC50 (estrogen receptor; [1]): 450 nM

Structure (SMILES): Cc1c(-c2ccc3c(c2)OCO3)n(Cc2ccc(OCCN3CCCCC3)cc2)c2ccc(O)cc12 [Example No. 119, 2-Benzo[1,3]dioxol-5-yl-3-methyl-1-[4-(2-piperidin-1-yl-ethoxy)-benzyl]-1H-indol-5-ol]
- IC50 (estrogen receptor; [1]): 70 nM

Structure (SMILES): Cc1c(-c2ccc(O)cc2)n(Cc2ccc(OCCN3C[C@@H]4CC[C@H]3C4)cc2)c2ccc(O)cc12 [Example No. 114, (1S,4R)-1-{4-[2-(2-Aza-bicyclo [2.2.1]hept-2-yl)-ethoxy]-benzyl}-2-(4-hydroxy-phenyl)-3-methyl-1H-indol-5-ol]
- IC50 (estrogen receptor; [1]): 1 nM

Structure (SMILES): CCCN(CCC)CCOc1ccc(Cn2c(-c3ccc(O)cc3)c(C)c3cc(O)ccc32)cc1 [Example No. 102, 1-[4-(2-Dipropylamino-ethoxy)-benzyl]-2-(4-hydroxy-phenyl)-3-methyl-1H-indol-5-ol]
- IC50 (estrogen receptor; [1]): 80 nM

Structure (SMILES): C[C@]12CC[C@@H]3c4ccc(O)cc4CC[C@H]3[C@@H]1C[C@@H](O)[C@@H]2O [estriol]
- EC50 (Ishikawa cells; Homo sapiens, Ishikawa): 0.13 nM
